Reference: US9302999B2, “Substituted triazoles as herbicides” (E. I. DU PONT DE NEMOURS AND COMPANY, priority 2012, dated 2016)

Legend:
Format in all cases: in vivo
[1] = tested on: barnyardgrass (Echinochloa crus-galli); experiment: Test A pre-/postemergence: barnyardgrass; conditions: for Barnyardgrass plant response rating: Postemergence; for Plant response rating, Barnyardgrass: Preemergence
In short: (§1)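 Visual 0–100 injury ratings (0 no effect, 100 complete control) taken about ten days after treatment, relative to untreated controls. Preemergence treatment was a directed soil spray; postemergence plants were 2–10 cm tall at one- to two-leaf stage. Soil: loam/sand blend.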

[2] = tested on: crabgrass, large (large crabgrass, Digitaria sanguinalis); experiment: Test A pre-/postemergence: crabgrass, large; conditions: for Crabgrass, Large plant response rating: Postemergence; for Plant response rating, Crabgrass, Large: Preemergence
In short: as §1

[3] = tested on: foxtail, giant (giant foxtail, Setaria faberii); experiment: Test A pre-/postemergence: foxtail, giant; conditions: for Foxtail, Giant plant response rating: Postemergence; for Plant response rating, Foxtail, Giant: Preemergence
In short: as §1

[4] = tested on: morningglory (Ipomoea spp.); experiment: Test A pre-/postemergence: morningglory; conditions: for Morningglory plant response rating: Postemergence; for Plant response rating, Morningglory: Preemergence
In short: as §1

[5] = tested on: pigweed (Amaranthus retroflexus); experiment: Test A pre-/postemergence: pigweed; conditions: for Pigweed plant response rating: Postemergence; for Plant response rating, Pigweed: Preemergence
In short: as §1

[6] = tested on: velvetleaf (Abutilon theophrasti); experiment: Test A pre-/postemergence: velvetleaf; conditions: for Velvetleaf plant response rating: Postemergence; for Plant response rating, Velvetleaf: Preemergence
In short: as §1

[7] = tested on: wheat (Triticum aestivum); experiment: Test A pre-/postemergence: wheat; conditions: for Wheat plant response rating: Postemergence; for Plant response rating, Wheat: Preemergence
In short: as §1

corn (Zea mays) = experiment: Test A pre-/postemergence: corn; conditions: for Corn plant response rating: Postemergence; for Plant response rating, Corn: Preemergence
In short: as §1

rice (Oryza sativa) = experiment: Test C flooded paddy test: rice; conditions: scale 0 to 100 (0 no effect, 100 complete control)
In short: (§2)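 Plants were grown to the 2-leaf stage, pots flooded to 3 cm above soil, and test compounds applied directly to the paddy water, with that depth held throughout. After 13 to 15 days in a greenhouse, injury was visually rated against controls on a 0 (no effect) to 100 (complete control) scale.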

[8] = tested on: sedge, umbrella (small-flower umbrella sedge, Cyperus difformis); experiment: Test C flooded paddy test: sedge, umbrella; conditions: scale 0 to 100 (0 no effect, 100 complete control)
In short: as §2

[9] = tested on: ducksalad (Heteranthera limosa); experiment: Test C flooded paddy test: ducksalad; conditions: scale 0 to 100 (0 no effect, 100 complete control)
In short: as §2

[10] = tested on: barnyardgrass (Echinochloa crus-galli); experiment: Test C flooded paddy test: barnyardgrass; conditions: scale 0 to 100 (0 no effect, 100 complete control)
In short: as §2

[11] = 125 g ai/ha, 0 to 100 scale, 0 is no effect, 100 is complete control
[12] = 500 g ai/ha, visual rating on 0 to 100 scale (0 no effect, 100 complete control), approximately ten days
[13] = 125 g ai/ha, 0 to 100 scale (0 no effect, 100 complete control)
[14] = 500 g ai/ha, 0 to 100 scale, 0 is no effect, 100 is complete control
[15] = Flood (flooded paddy test), 62 g ai/ha, visual rating after 13 to 15 days
[16] = Flood (flooded paddy test), 125 g ai/ha, visual rating after 13 to 15 days
[17] = Flood (flooded paddy test), 250 g ai/ha, visual rating after 13 to 15 days

Compound: Cc1nn(-c2cccc(C(F)(F)F)c2)nc1Oc1cccc(C(F)(F)F)c1 [Compound 70]
- Barnyardgrass plant response rating [1, 11]: 0
- Barnyardgrass plant response rating [1, 12]: 10
- Plant response rating, Barnyardgrass [1, 13]: 0
- Plant response rating, Barnyardgrass [1, 14]: 0
- Crabgrass, Large plant response rating [2, 11]: 10
- Crabgrass, Large plant response rating [2, 12]: 30
- Plant response rating, Crabgrass, Large [2, 13]: 0
- Plant response rating, Crabgrass, Large [2, 14]: 40
- Foxtail, Giant plant response rating [3, 11]: 10
- Foxtail, Giant plant response rating [3, 12]: 20
- Plant response rating, Foxtail, Giant [3, 13]: 0
- Plant response rating, Foxtail, Giant [3, 14]: 50
- Morningglory plant response rating [4, 11]: 10
- Morningglory plant response rating [4, 12]: 20
- Plant response rating, Morningglory [4, 13]: 0
- Plant response rating, Morningglory [4, 14]: 0
- Pigweed plant response rating [5, 11]: 40
- Pigweed plant response rating [5, 12]: 100
- Plant response rating, Pigweed [5, 13]: 0
- Plant response rating, Pigweed [5, 14]: 10
- Velvetleaf plant response rating [6, 11]: 10
- Velvetleaf plant response rating [6, 12]: 50
- Plant response rating, Velvetleaf [6, 13]: 0
- Plant response rating, Velvetleaf [6, 14]: 0
- Wheat plant response rating [7, 11]: 0
- Wheat plant response rating [7, 12]: 10
- Plant response rating, Wheat [7, 13]: 0
- Plant response rating, Wheat [7, 14]: 0
- Corn plant response rating (corn (Zea mays); [11]): 10
- Corn plant response rating (corn (Zea mays); [12]): 20
- Plant response rating, Corn (corn (Zea mays); [13]): 0
- Plant response rating, Corn (corn (Zea mays); [14]): 0
- Plant response rating, Rice (rice (Oryza sativa); [15]): 0
- Plant response rating, Rice (rice (Oryza sativa); [16]): 0
- Plant response rating, Rice (rice (Oryza sativa); [17]): 0
- Plant response rating, Rice (rice (Oryza sativa); Flood, 31 g ai/ha): 0
- Plant response rating, Sedge, Umbrella [8, 15]: 0
- Plant response rating, Sedge, Umbrella [8, 16]: 0
- Plant response rating, Sedge, Umbrella [8, 17]: 0
- Plant response rating, Sedge, Umbrella ([8]; Flood, 31 g ai/ha): 0
- Plant response rating, Ducksalad [9, 15]: 0
- Plant response rating, Ducksalad [9, 16]: 0
- Plant response rating, Ducksalad [9, 17]: 0
- Plant response rating, Ducksalad ([9]; Flood, 31 g ai/ha): 0
- Plant response rating, Barnyardgrass [10, 15]: 0
- Plant response rating, Barnyardgrass [10, 16]: 0
- Plant response rating, Barnyardgrass [10, 17]: 0
- Plant response rating, Barnyardgrass ([10]; Flood, 31 g ai/ha): 0

Compound: Cc1nn(-c2ccc(F)cc2)nc1Oc1ccnc(OCC(F)(F)F)c1 [Compound 71]
- Barnyardgrass plant response rating [1, 11]: 0
- Barnyardgrass plant response rating [1, 12]: 10
- Plant response rating, Barnyardgrass [1, 13]: 0
- Plant response rating, Barnyardgrass [1, 14]: 0
- Crabgrass, Large plant response rating [2, 11]: 10
- Crabgrass, Large plant response rating [2, 12]: 10
- Plant response rating, Crabgrass, Large [2, 13]: 0
- Plant response rating, Crabgrass, Large [2, 14]: 10
- Foxtail, Giant plant response rating [3, 11]: 10
- Foxtail, Giant plant response rating [3, 12]: 10
- Plant response rating, Foxtail, Giant [3, 13]: 0
- Plant response rating, Foxtail, Giant [3, 14]: 0
- Morningglory plant response rating [4, 11]: 10
- Morningglory plant response rating [4, 12]: 10
- Plant response rating, Morningglory [4, 13]: 0
- Plant response rating, Morningglory [4, 14]: 0
- Pigweed plant response rating [5, 11]: 10
- Pigweed plant response rating [5, 12]: 40
- Plant response rating, Pigweed [5, 13]: 0
- Plant response rating, Pigweed [5, 14]: 0
- Velvetleaf plant response rating [6, 11]: 0
- Velvetleaf plant response rating [6, 12]: 10
- Plant response rating, Velvetleaf [6, 13]: 0
- Plant response rating, Velvetleaf [6, 14]: 0
- Wheat plant response rating [7, 11]: 0
- Wheat plant response rating [7, 12]: 0
- Plant response rating, Wheat [7, 13]: 0
- Plant response rating, Wheat [7, 14]: 0
- Corn plant response rating (corn (Zea mays); [11]): 0
- Corn plant response rating (corn (Zea mays); [12]): 10
- Plant response rating, Corn (corn (Zea mays); [13]): 0
- Plant response rating, Corn (corn (Zea mays); [14]): 0
- Plant response rating, Rice (rice (Oryza sativa); [15]): 0
- Plant response rating, Rice (rice (Oryza sativa); [16]): 0
- Plant response rating, Rice (rice (Oryza sativa); [17]): 0
- Plant response rating, Rice (rice (Oryza sativa); Flood, 31 g ai/ha): 0
- Plant response rating, Sedge, Umbrella [8, 15]: 0
- Plant response rating, Sedge, Umbrella [8, 16]: 0
- Plant response rating, Sedge, Umbrella [8, 17]: 0
- Plant response rating, Sedge, Umbrella ([8]; Flood, 31 g ai/ha): 0
- Plant response rating, Ducksalad [9, 15]: 0
- Plant response rating, Ducksalad [9, 16]: 0
- Plant response rating, Ducksalad [9, 17]: 0
- Plant response rating, Ducksalad ([9]; Flood, 31 g ai/ha): 0
- Plant response rating, Barnyardgrass [10, 15]: 0
- Plant response rating, Barnyardgrass [10, 16]: 0
- Plant response rating, Barnyardgrass [10, 17]: 0
- Plant response rating, Barnyardgrass ([10]; Flood, 31 g ai/ha): 0

Compound: Cc1nn(-c2ccc(C(F)(F)F)nc2)nc1C(=O)c1cccc(C(F)(F)F)c1 [Compound 73]
- Barnyardgrass plant response rating [1, 11]: 10
- Barnyardgrass plant response rating [1, 12]: 30
- Plant response rating, Barnyardgrass [1, 13]: 0
- Plant response rating, Barnyardgrass [1, 14]: 40
- Crabgrass, Large plant response rating [2, 11]: 20
- Crabgrass, Large plant response rating [2, 12]: 60
- Plant response rating, Crabgrass, Large [2, 13]: 50
- Plant response rating, Crabgrass, Large [2, 14]: 90
- Foxtail, Giant plant response rating [3, 11]: 10
- Foxtail, Giant plant response rating [3, 12]: 40
- Plant response rating, Foxtail, Giant [3, 13]: 60
- Plant response rating, Foxtail, Giant [3, 14]: 90
- Morningglory plant response rating [4, 11]: 20
- Morningglory plant response rating [4, 12]: 70
- Plant response rating, Morningglory [4, 13]: 0
- Plant response rating, Morningglory [4, 14]: 10
- Pigweed plant response rating [5, 11]: 70
- Pigweed plant response rating [5, 12]: 100
- Plant response rating, Pigweed [5, 13]: 30
- Plant response rating, Pigweed [5, 14]: 100
- Velvetleaf plant response rating [6, 11]: 20
- Velvetleaf plant response rating [6, 12]: 40
- Plant response rating, Velvetleaf [6, 13]: 0
- Plant response rating, Velvetleaf [6, 14]: 10
- Wheat plant response rating [7, 11]: 10
- Wheat plant response rating [7, 12]: 20
- Plant response rating, Wheat [7, 13]: 0
- Plant response rating, Wheat [7, 14]: 10
- Corn plant response rating (corn (Zea mays); [11]): 10
- Corn plant response rating (corn (Zea mays); [12]): 20
- Plant response rating, Corn (corn (Zea mays); [13]): 0
- Plant response rating, Corn (corn (Zea mays); [14]): 0
- Plant response rating, Rice (rice (Oryza sativa); [15]): 0
- Plant response rating, Rice (rice (Oryza sativa); [16]): 0
- Plant response rating, Rice (rice (Oryza sativa); [17]): 0
- Plant response rating, Rice (rice (Oryza sativa); Flood, 31 g ai/ha): 0
- Plant response rating, Sedge, Umbrella [8, 15]: 0
- Plant response rating, Sedge, Umbrella [8, 16]: 0
- Plant response rating, Sedge, Umbrella [8, 17]: 0
- Plant response rating, Sedge, Umbrella ([8]; Flood, 31 g ai/ha): 0
- Plant response rating, Ducksalad [9, 15]: 0
- Plant response rating, Ducksalad [9, 16]: 0
- Plant response rating, Ducksalad [9, 17]: 85
- Plant response rating, Ducksalad ([9]; Flood, 31 g ai/ha): 0
- Plant response rating, Barnyardgrass [10, 15]: 0
- Plant response rating, Barnyardgrass [10, 16]: 0
- Plant response rating, Barnyardgrass [10, 17]: 0
- Plant response rating, Barnyardgrass ([10]; Flood, 31 g ai/ha): 0
